Experimental data from patent publication US12077503B2, “Substituted cyclic amides and their use as herbicides” (FMC CORPORATION, priority 2015, dated 2024).

Assays:
Type in all cases: in vivo
Kochia (Kochia scoparia) [1] = experiment: Test A preemergence; settings: Bassia scoparia, pre-emergence, 240 h; for pest or weed control at 125 g/ha: 125 g ai/ha, preemergence, 0 to 100 scale where 0 is no effect and 100 is complete control, read-out: Kochia plant response rating; for pest or weed control at 500 g/ha: 500 g ai/ha, Preemergence, visual injury vs untreated controls after approximately 10 d, read-out: Kochia plant response rating (0 to 100 scale where 0 is no effect and 100 is complete control)
Method in brief: (§1)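 Preemergence directed soil spray on seeded pots, or postemergence application to plants 2–10 cm, one- to two-leaf. Solvent mixture non-phytotoxic, with surfactant. Scored ~10 d later, visually, 0–100 vs untreated.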

[2] = tested on: barnyardgrass (Echinochloa crus-galli); experiment: Test A preemergence; settings: Echinochloa crus-galli, pre-emergence, 240 h; for pest or weed control at 125 g/ha: 125 g ai/ha, preemergence, 0 to 100 scale where 0 is no effect and 100 is complete control, read-out: Barnyardgrass plant response rating; for pest or weed control at 500 g/ha: 500 g ai/ha, Preemergence, visual injury vs untreated controls after approximately 10 d, read-out: Barnyardgrass plant response rating (0 to 100 scale where 0 is no effect and 100 is complete control)
Method in brief: as §1

[3] = tested on: giant foxtail (Setaria faberii); experiment: Test A preemergence; settings: Setaria faberi, pre-emergence, 240 h; for pest or weed control at 125 g/ha: 125 g ai/ha, preemergence, 0 to 100 scale where 0 is no effect and 100 is complete control, read-out: Foxtail, Giant plant response rating; for pest or weed control at 500 g/ha: 500 g ai/ha, Preemergence, visual injury vs untreated controls after approximately 10 d, read-out: Foxtail, Giant plant response rating (0 to 100 scale where 0 is no effect and 100 is complete control)
Method in brief: as §1

[4] = tested on: pigweed (Amaranthus retroflexus); experiment: Test A preemergence; settings: Amaranthus retroflexus, pre-emergence, 240 h; for pest or weed control at 125 g/ha: 125 g ai/ha, preemergence, 0 to 100 scale where 0 is no effect and 100 is complete control, read-out: Pigweed plant response rating; for pest or weed control at 500 g/ha: 500 g ai/ha, Preemergence, visual injury vs untreated controls after approximately 10 d, read-out: Pigweed plant response rating (0 to 100 scale where 0 is no effect and 100 is complete control)
[5] = tested on: ragweed (common ragweed, Ambrosia elatior); experiment: Test A preemergence; settings: Ambrosia artemisiifolia, pre-emergence, 240 h; for pest or weed control at 125 g/ha: 125 g ai/ha, preemergence, 0 to 100 scale where 0 is no effect and 100 is complete control, read-out: Ragweed plant response rating; for pest or weed control at 500 g/ha: 500 g ai/ha, Preemergence, visual injury vs untreated controls after approximately 10 d, read-out: Ragweed plant response rating (0 to 100 scale where 0 is no effect and 100 is complete control)
Method in brief: as §1

[6] = tested on: ryegrass, Italian (Italian ryegrass, Lolium multiflorum); experiment: Test A preemergence; settings: Lolium multiflorum, pre-emergence, 240 h; for pest or weed control at 125 g/ha: 125 g ai/ha, preemergence, 0 to 100 scale where 0 is no effect and 100 is complete control, read-out: Ryegrass, Italian plant response rating; for pest or weed control at 500 g/ha: 500 g ai/ha, Preemergence, visual injury vs untreated controls after approximately 10 d, read-out: Ryegrass, Italian plant response rating (0 to 100 scale where 0 is no effect and 100 is complete control)
Method in brief: as §1

[7] = tested on: Galium (catchweed bedstraw, Galium aparine); experiment: Test A postemergence; settings: Galium, post-emergence, 240 h, 125 g ai/ha, postemergence, visual injury rating after approximately 10 d; read-out: Galium plant response rating (0 to 100 scale, 0 no effect, 100 complete control)
Method in brief: as §1

Kochia (Kochia scoparia) [8] = experiment: Test A postemergence; settings: Bassia scoparia, post-emergence, 240 h, 125 g ai/ha, postemergence, visual injury rating after approximately 10 d; read-out: Kochia plant response rating (0 to 100 scale, 0 no effect, 100 complete control)
Method in brief: as §1

[9] = tested on: barnyardgrass (Echinochloa crus-galli); experiment: Test A postemergence; settings: Echinochloa crus-galli, post-emergence, 240 h, 125 g ai/ha, postemergence, visual injury rating after approximately 10 d; read-out: Barnyardgrass plant response rating (0 to 100 scale, 0 no effect, 100 complete control)
Method in brief: as §1

corn (Zea mays) = experiment: Test A postemergence; settings: Zea mays, post-emergence, 240 h, 125 g ai/ha, postemergence, visual injury rating after approximately 10 d; read-out: Corn plant response rating (0 to 100 scale, 0 no effect, 100 complete control)
Method in brief: as §1

[10] = tested on: giant foxtail (Setaria faberii); experiment: Test A postemergence; settings: Setaria faberi, post-emergence, 240 h, 125 g ai/ha, postemergence, visual injury rating after approximately 10 d; read-out: Foxtail, Giant plant response rating (0 to 100 scale, 0 no effect, 100 complete control)
Method in brief: as §1

[11] = tested on: pigweed (Amaranthus retroflexus); experiment: Test A postemergence; settings: Amaranthus retroflexus, post-emergence, 240 h, 125 g ai/ha, postemergence, visual injury rating after approximately 10 d; read-out: Pigweed plant response rating (0 to 100 scale, 0 no effect, 100 complete control)
Method in brief: as §1

[12] = tested on: ragweed (common ragweed, Ambrosia elatior); experiment: Test A postemergence; settings: Ambrosia artemisiifolia, post-emergence, 240 h, 125 g ai/ha, postemergence, visual injury rating after approximately 10 d; read-out: Ragweed plant response rating (0 to 100 scale, 0 no effect, 100 complete control)
Method in brief: as §1

[13] = tested on: ryegrass, Italian (Italian ryegrass, Lolium multiflorum); experiment: Test A postemergence; settings: Lolium multiflorum, post-emergence, 240 h, 125 g ai/ha, postemergence, visual injury rating after approximately 10 d; read-out: Ryegrass, Italian plant response rating (0 to 100 scale, 0 no effect, 100 complete control)
Method in brief: as §1

[14] = tested on: wheat (Triticum aestivum); experiment: Test A postemergence; settings: Triticum aestivum, post-emergence, 240 h, 125 g ai/ha, postemergence, visual injury rating after approximately 10 d; read-out: Wheat plant response rating (0 to 100 scale, 0 no effect, 100 complete control)
Method in brief: as §1

Row | SMILES | pest or weed control at 125 g/ha (Kochia (Kochia scoparia) [1]) | pest or weed control at 500 g/ha (Kochia (Kochia scoparia) [1]) | pest or weed control at 125 g/ha [2] | pest or weed control at 500 g/ha [2] | pest or weed control at 125 g/ha [3] | pest or weed control at 500 g/ha [3] | pest or weed control at 125 g/ha [4] | pest or weed control at 500 g/ha [4] | pest or weed control at 125 g/ha [5] | pest or weed control at 500 g/ha [5] | pest or weed control at 125 g/ha [6] | pest or weed control at 500 g/ha [6] | pest or weed control at 125 g/ha [7] | pest or weed control at 125 g/ha (Kochia (Kochia scoparia) [8]) | pest or weed control at 125 g/ha [9] | plant injury at 125 g/ha (corn (Zea mays)) | pest or weed control at 125 g/ha [10] | pest or weed control at 125 g/ha [11] | pest or weed control at 125 g/ha [12] | pest or weed control at 125 g/ha [13] | other results
1 | CCOc1ccc([C@H]2CNC(=O)[C@@H]2C(=O)Nc2ccccc2F)cc1 [Compound 906] | 0% | 0% | 0% | 0% | 0% | 0% | 0% | 0% | 0% | 0% | 0% | 0% | 0% | 0% | 0% | 0% | 0% | 0% | 0% | 0% | plant injury at 125 g/ha [14]: 0%
2 | O=C1NC[C@H](c2cc(F)c(C(F)(F)F)c(F)c2)[C@H]1C(=O)Nc1ccc(F)cc1F [Compound 840] | 0% | 70% | 80% | 90% | 90% | 90% | 30% | 60% | 0% | 0% | 0% | 20% | 50% | 0% | 80% | 30% | 90% | 0% | 0% | 0% | plant injury at 125 g/ha [14]: 20%
